# Like-named read-outs stand apart in the source and are kept apart here.
# Legend:
# lung P.D.E. = assay: Antiphosphodiesterase activity, lung P.D.E.; type: biochemical, Wistar rats; details: rat lungs, relative to theophylline
# Text: (§1) The preparation of the enzyme from heart, lungs and brain of Wistar rats and the activity test of P.D.E. have been carried out according to the R. W. BUTCHER and E. W. […] (J. Biol. Chem. 237, 1244; 1962).
# heart P.D.E. = assay: Antiphosphodiesterase activity, heart P.D.E.; type: biochemical, Wistar rats; details: rat heart, relative to theophylline
# Text: as §1
# [1] = system: acetylcholine induced bronchospasm; assay: Antibronchospastic activity (acetylcholine induced bronchospasm, Konzett-Rossler method); type: in vivo, guinea pigs; details: Cavia porcellus, im, read-out: ED50 (50% reduction of acetylcholine induced bronchospasm)
# Text: The test has been carried out in anaesthesized adult guinea pigs under artificial respiration.
# mouses = assay: Activity on CNS: reaction to subtoxic dose of cardiazole, mouses; type: in vivo; details: cardiazole i.p. 60-70 mg/Kg
# rats = assay: Activity on CNS: reaction to subtoxic dose of cardiazole, rats; type: in vivo; details: cardiazole i.p. 60-70 mg/Kg
# guinea pigs = assay: Activity on CNS: reaction to subtoxic dose of cardiazole, guinea pigs; type: in vivo; details: cardiazole i.p. 60-70 mg/Kg
# Acute toxicity = details: mouse, in vivo, male Swiss mouses about 20 g, empty since 16 hours, read-out: DL50 (the source's name)
# Method: The compound has been administered either per os or by intravenous injection to male Swiss mouses having a weight of about 20 g, empty since 16 hours.
# brain P.D.E. = assay: Antiphosphodiesterase activity, brain P.D.E.; type: biochemical, Wistar rats; details: rat brain, relative to theophylline
# Text: as §1
# [2] = 0.5 h, 30' after intramuscular administration
# [3] = 1 h, 60' after intramuscular administration
# [4] = 1.5 h, 90' after intramuscular administration
structure (smiles),measurement,setting,value
"CC(C)Cn1cnc2c1c(=O)n(C)c(=O)n2C [7-isobutyl theophylline, 1,3-dimethyl-7-isobutyl-xanthine]",activity against lung P.D.E. in comparison with theophylline,lung P.D.E.,four times more active
same,activity against heart P.D.E. in comparison with theophylline,heart P.D.E.,four times more active
same,ED50,[1]; [2],120 µmol/kg
same,ED50,[1]; [3],140 µmol/kg
same,ED50,[1]; [4],160 µmol/kg
same,% dead animals,mouses; 25 mg/kg S.C. (20'),0%
same,% dead animals,mouses; 50 mg/kg S.C. (20'),0%
same,% dead animals,mouses; 100 mg/kg S.C. (20'),0%
same,% dead animals,rats; 50 mg/kg S.C. (20'),0%
same,% dead animals,rats; 100 mg/kg S.C. (20'),0%
same,% dead animals,guinea pigs; 50 mg/kg S.C. (20'),0%
same,% dead animals,guinea pigs; 100 mg/kg S.C. (20'),0%
same,LD50,"Acute toxicity; po, per os",199 mg/kg
same,LD50,Acute toxicity; intravenous injection,129 mg/kg
same,activity against brain P.D.E. in comparison with theophylline,brain P.D.E.,twice more active
"Cn1c(=O)c2[nH]cnc2n(C)c1=O [Theophylline, theophylline, reference compound]",ED50,[1]; [2],270 µmol/kg
same,ED50,[1]; [3],230 µmol/kg
same,ED50,[1]; [4],200 µmol/kg

# Source: patent publication US4544556A, “Xanthine derivatives, pharmaceutical compositions containing same and their therapeutic use” (Malesci S.p.A. Istituto Farmacologico, priority 1982, dated 1985)
